Source: patent publication US20200179341A1, “METHODS AND COMPOSITIONS FOR TREATING MULTIPLE MYELOMA AND INCREASING ANTIBODY DEPENDENT CELL CYTOTOXICITY BY TARGETING THE ARYL HYDROCARBON RECEPTOR” (priority 2016, published 2020)

Tests used:
NK cell precursors [1] = assay: NK cell development and function from AHR-expressing innate lymphoid cell precursors; format: cell-based; conditions: compared to control and AHR agonist (FICZ) treated cells; FIG. 2
MM cell targets = assay: Antibody-mediated ADCC with AHR antagonism (cytotoxicity co-culture); format: cell-based
Experimental: A series of in vitro studies are conducted in which immune effector cells and/or MM cell targets are pre-treated with vehicle or CH233191 prior to cytotoxicity co-culture assay. Accounting for the baseline, direct effect of AHR antagonism on MM cell viability, any additive rate of target cell death in the combinatorial condition can be studied, in particular when both effectors and targets are pre-exposed to CH233191. Using validated techniques (Benson Blood 2010), the effects of CH233191 on immune effector cell expansion, expression of activating receptors, and abilities to traffic to, acquire, and lyse MM targets is studied. These experiments are conducted in the presence of therapeutic monoclonal antibodies in order to assess whether AHR antagonism may enhance ADCC-mediated immunotherapy (e.g., Elotuzumab, Daratumumab/Isatuximab/Rituximab/Milatuzumab).

MM tumor cell burden = assay: CH233191 by oral gavage in a disseminated murine MM model
MM cells = assay: Surface expression (MFI) of MM antigens targetable by therapeutic monoclonal antibodies after AHR inhibition; format: cell-based
Experimental: AHR antagonism enhances MM expression of antigens targetable by therapeutic monoclonal antibodies. […] Accordingly, NK-cell mediated killing of MM tumor cells is tested by combining AHR antagonism of effector cells and MM targets with therapeutic monoclonal antibodies.

NK cell precursors [2] = conditions: Roeven Blood 2014; cited from earlier work

| SMILES | acquisition of cytokine production and cytotoxicity capabilities (NK cell precursors [1]) | Elotuzumab-mediated ADCC (MM cell targets; FIG. 9, with Elotuzumab) | Daratumumab-mediated ADCC (MM cell targets; FIG. 10, with Daratumumab) | oral bioavailability (MM tumor cell burden; difficulties with solubilization in corn oil for gavage) | apparent reduction in MM tumor cell burden (MM tumor cell burden; oral gavage in corn oil, versus vehicle-treated controls) | survival outcome (MM tumor cell burden; oral gavage, disseminated murine MM model) | MFI (CH233191), CD20 (MM cells; surface antigen CD20, antibody Rituximab, DMSO control MFI 321) | MFI (CH233191), CD38 (MM cells; surface antigen CD38, antibodies Daratumumab, Isatuximab, DMSO control MFI 2959) | MFI (CH233191), CD74 (MM cells; surface antigen CD74, antibody Milatuzumab, DMSO control MFI 761) | MFI (CH233191), SLAMF7 (CS1) (MM cells; surface antigen SLAMF7 (CS1), antibody Elotuzumab, DMSO control MFI 1946) | acquisition of NK cell function (corroboration) (NK cell precursors [2]) |
| --- | --- | --- | --- | --- | --- | --- | --- | --- | --- | --- | --- |
| Cc1ccccc1N=Nc1ccc(NC(=O)c2ccnn2C)c(C)c1 [CH233191] | rapid acquisition of cytokine production as well as cytotoxicity capabilities | appears to enhance | appears to enhance | questionable | 2 of 5 | all mice died of progressive MM | 753 | 6110 | 1367 | 2999 |  |
| CC(C)n1cnc2c(NCCc3ccc(O)cc3)nc(-c3csc4ccccc34)nc21 [Stemreginin 1] |  |  |  |  |  |  |  |  |  |  | corroborated this finding |
